The text below walks through data of patent US20240092784A1, “CONDENSED HETEROCYCLIC COMPOUND” (NISSAN CHEMICAL CORPORATION, priority 2020, published 2024).

Molecules are shown by their SMILES. A value given as a limit tells only on which side of the number the result lay.

Chain of human SPR (P35270 whole entry): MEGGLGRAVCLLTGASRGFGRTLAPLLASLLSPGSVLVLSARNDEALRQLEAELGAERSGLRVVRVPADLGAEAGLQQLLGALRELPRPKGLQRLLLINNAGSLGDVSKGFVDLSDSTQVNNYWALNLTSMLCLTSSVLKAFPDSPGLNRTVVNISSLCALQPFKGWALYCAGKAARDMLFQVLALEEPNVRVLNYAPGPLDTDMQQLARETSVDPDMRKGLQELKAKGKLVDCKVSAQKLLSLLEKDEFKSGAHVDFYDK

This experiment has as its target human SPR (Homo sapiens (Human), UniProt P35270). Nature of the experiment: Evaluation Example 1: Measurement of human SPR inhibitory activity (sepiapterin absorbance at 420 nm). As to conditions: 240 minutes at room temperature. The format is biochemical. As to the method:
Human SPR was prepared as described below. The full-length human SPR (1-261) cDNA was purchased from Eurofins Genomics as an artificially synthesized plasmid containing a DNA sequence optimized for the E. coli expression system so that the sequence of the expressed protein after transcription and translation matches the sequence described in UniprotKB (P35270).
Linearized insert and vector were prepared by PCR using primers designed for amplification of human SPR cDNA and primers designed to contain the thrombin recognition sequence of pET28a (Novagen) and a polyhistidine tag. Cloning was performed using In-Fusion (registered trademark) HD Cloning Kit (TaKaRa) to thereby construct a human SPR expression plasmid. The resultant human SPR expression plasmid was transformed into BL21 (DE3) competent cells (INVITROGEN).
The cells were inoculated into LB medium (1% triptone, 0.5% yeast extract, 1% sodium chloride) containing […] of kanamycin, and then precultured at 37° C. overnight. The precultured cells were inoculated into TB medium (1.2% triptone, 2.4% yeast extract, 9.4% dipotassium hydrogen phosphate, 2.2% potassium dihydrogen phosphate, 0.8% glycerin) containing […] of kanamycin, and the cultured at 37° C., to thereby induce SPR expression with 0.5 mM IPTG for four hours. After the induction, the cells were collected by centrifugation at 6,000 G for 30 minutes and washed with PBS, and the washing was discarded. The washed cells were suspended in buffer solution A (20 mM MES, pH 6.5, 100 mM sodium chloride, 1 mM DTT, 5 mM imidazole). Subsequently, the cell suspension was subjected to ultrasonic treatment to thereby homogenize the cells. The cell homogenate was clarified by centrifugation at 30,000 G for 60 minutes and then filtered with a […]. The filtrate was allowed to pass through HisTrapFF 5 mL column (GE Healthcare). The resin was washed with buffer A, and then gradient elution was performed with buffer B (20 mM MES, pH 6.5, 100 mM sodium chloride, 1 mM DTT, 500 mM imidazole). Thrombin was added to a fraction containing the SPR protein, and the mixture was dialyzed in buffer A overnight, to thereby cleave the tag. After removal of the thrombin by with Benzamidine Sepharose 4 FF (GE Healthcare), the resultant product was allowed to pass through the HisTrapFF 5 mL column, to thereby remove the tag, followed by concentration with Amicon Ultra 10,000 NMWL (Merck Millipore). The concentrate was purified by gel filtration using HiLoad 16/60 Superdex 75 pg (GE Healthcare) equilibrated with buffer C (20 mM MES, pH 6.5, 100 mM sodium chloride, 1 mM DTT). The fraction containing SPR protein was concentrated and then cryopreserved at −80° C.
Human SPR inhibitory activity was measured by using a 384-well low adsorption clear plate (Greiner) with buffer D containing 100 mM Tris-HCl (pH 7.5) (Thermo Fisher Scientific) and 0.01% bovine serum albumin (Sigma). A compound was diluted with DMSO to a concentration of 1 mM, and a 1 μL aliquot of the preparation was diluted with 250 μL of buffer D. The thus-diluted compound was dispensed into the 384-well plate at […]. Thereafter, human SPR was diluted with buffer D to 200 ng/mL and then dispensed into the 384-well plate at 20 μL/well. Subsequently, 40 μL of ultrapure water containing 120 μM Sepiapterin (WuXi AppTec) and 120 μM NADPH (Nacalai) was added to each well, and mixed with a vortex mixer, to thereby initiate the reaction. The reaction mixture was incubated at room temperature for 240 minutes, and the reaction was terminated by addition of 10 μL of ultrapure water containing 2% formic acid (Nacalai). In order to determine the amount of sepiapterin after termination of the reaction, the absorbance at 420 nm was measured by applying the 384-well plate to EnSpire multimode plate reader (Perkin Elmer). The percent inhibition (%) of human SPR by the test compound was calculated by the following formula. […]
Turning to `CC(C)(C)Cn1c(=O)c(C(=O)NC2CCC2)c(O)n2nc(Nc3cnccn3)cc12` [Synthesis Example 26, N-Cyclobutyl-7-hydroxy-4-neopentyl-5-oxo-2-(pyrazin-2-ylamino)-4,5-dihydropyrazolo[1,5-a]pyrimidine-6-carboxamide], the IC50 – broadly, the concentration at which inhibition is half-maximal – was less than 1000 nM.

Molecule `COc1ccnc(Nc2cc3n(CC(C)(C)C)c(=O)c(C(=O)NC4CC4)c(O)n3n2)c1` [Synthesis Example 195, N-Cyclopropyl-7-hydroxy-2-((4-methoxypyridin-2-yl)amino)-4-neopentyl-5-oxo-4,5-dihydropyrazolo[1,5-a]pyrimidine-6-carboxamide] showed a half-inhibitory concentration (IC50) of less than 1000 nM.

Molecule `CC(C)Cn1c(=O)c(C(=O)NC2CC2)c(O)n2nc(Br)cc12` [Synthesis Example 22, 2-Bromo-N-cyclopropyl-7-hydroxy-4-isobutyl-5-oxo-4,5-dihydropyrazolo[1,5-a]pyrimidine-6-carboxamide] had an IC50 of less than 1000 nM. The result for `CC(C)Cn1c(=O)c(C(=O)NC2CC2)c(O)n2nc(-c3cccnc3N)cc12` [Synthesis Example 24, 2-(2-Aminopyridin-3-yl)-N-cyclopropyl-7-hydroxy-4-isobutyl-5-oxo-4,5-dihydropyrazolo[1,5-a]pyrimidine-6-carboxamide] reads less than 1000 nM.

Take `COC(=O)c1cnc(Nc2cc3n(CC(C)(C)C)c(=O)c(C(=O)NC4CC4)c(O)n3n2)cn1` [Synthesis Example 19, Methyl 5-((6-(cyclopropylcarbamoyl)-7-hydroxy-4-neopentyl-5-oxo-4,5-dihydropyrazolo[1,5-a]pyrimidin-2-yl)amino)pyrazine-2-carboxylate]: the IC50 is less than 1000 nM. The molecule `CC(C)(C)Cn1c(=O)c(C(=O)NC2CC2)c(O)n2nc(C(=O)Nc3ccccn3)cc12` [Synthesis Example 41, N6-Cyclopropyl-7-hydroxy-4-neopentyl-5-oxo-N2-(pyridin-2-yl)-4,5-dihydropyrazolo[1,5-a]pyrimidine-2,6-dicarboxamide] displayed a 50% inhibitory concentration (IC50) of less than 1000 nM. Consider `CC1(Cn2c(=O)c(C(=O)NC3CC3)c(O)n3nc(Nc4cnccn4)cc23)CCOCC1` [Synthesis Example 28, N-Cyclopropyl-7-hydroxy-4-((4-methyltetrahydro-2H-pyran-4-yl)methyl)-5-oxo-2-(pyrazin-2-ylamino)-4,5-dihydropyrazolo[1,5-a]pyrimidine-6-carboxamide], for which the IC50 was less than 1000 nM. Molecule `CC1(Cn2c(=O)c(C(=O)NC3CC3)c(O)n3nc(-c4cccnc4N)cc23)CCOCC1` [Synthesis Example 29, 2-(2-Aminopyridin-3-yl)-N-cyclopropyl-7-hydroxy-4-((4-methyltetrahydro-2H-pyran-4-yl)methyl)-5-oxo-4,5-dihydropyrazolo[1,5-a]pyrimidine-6-carboxamide] yielded an IC50 of less than 1000 nM. The result for `CC(C)Cn1c(=O)c(C(=O)NC2CC2)c(O)n2ncc(C=O)c12` [Synthesis Example 7, N-Cyclopropyl-3-formyl-7-hydroxy-4-isobutyl-5-oxo-4,5-dihydropyrazolo[1,5-a]pyrimidine-6-carboxamide] reads less than 1000 nM. With `CC(C)(C)Cn1c(=O)c(C(=O)NC2CC2)c(O)n2ncc(/C=C/C(=O)N3CCOCC3)c12` [Synthesis Example 169, (E)-N-Cyclopropyl-7-hydroxy-3-(3-morpholino-3-oxoprop-1-en-1-yl)-4-neopentyl-5-oxo-4,5-dihydropyrazolo[1,5-a]pyrimidine-6-carboxamide], the IC50 was less than 1000 nM. `CC(C)Cn1c(=O)c(C(=O)NC2CC2)c(O)n2ncc(Br)c12` [Synthesis Example 104, 3-Bromo-N-cyclopropyl-7-hydroxy-4-isobutyl-5-oxo-4,5-dihydropyrazolo[1,5-a]pyrimidine-6-carboxamide] displayed an IC50 of less than 1000 nM. Molecule `CCOC(=O)c1cc2n(CC(C)(C)C)c(=O)c(C(=O)NC3CC3)c(O)n2n1` [Synthesis Example 1, Ethyl 6-(cyclopropylcarbamoyl)-7-hydroxy-4-neopentyl-5-oxo-4,5-dihydropyrazolo[1,5-a]pyrimidine-2-carboxylate] registered an IC50 of less than 1000 nM. The result for `CC(C)Cn1c(=O)c(C(=O)NC2CC2)c(O)n2ncc(/C=C/C(=O)O)c12` [Synthesis Example 9, (E)-3-(6-(Cyclopropylcarbamoyl)-7-hydroxy-4-isobutyl-5-oxo-4,5-dihydropyrazolo[1,5-a]pyrimidin-3-yl)acrylic acid] reads less than 1000 nM. The result for `CC1(Cn2c(=O)c(C(=O)NC3CCC3)c(O)n3nc(Nc4cnccn4)cc23)CCOCC1` [Synthesis Example 31, N-Cyclobutyl-7-hydroxy-4-((4-methyltetrahydro-2H-pyran-4-yl)methyl)-5-oxo-2-(pyrazin-2-ylamino)-4,5-dihydropyrazolo[1,5-a]pyrimidine-6-carboxamide] reads less than 1000 nM; that for `O=C(NC1CC1)c1c(O)n2ncc(C3=CCOCC3)c2n(CC2CCOCC2)c1=O` [Synthesis Example 35, N-Cyclopropyl-3-(3,6-dihydro-2H-pyran-4-yl)-7-hydroxy-5-oxo-4-((tetrahydro-2H-pyran-4-yl)methyl)-4,5-dihydropyrazolo[1,5-a]pyrimidine-6-carboxamide], less than 1000 nM. The result for `CC1(Cn2c(=O)c(C(=O)NC3CC3)c(O)n3nc(Br)cc23)CCOCC1` [Synthesis Example 27, 2-Bromo-N-cyclopropyl-7-hydroxy-4-((4-methyltetrahydro-2H-pyran-4-yl)methyl)-5-oxo-4,5-dihydropyrazolo[1,5-a]pyrimidine-6-carboxamide] reads less than 1000 nM. Consider `CC(C)(C)Cn1c(=O)c(C(=O)NC2CC2)c(O)n2nc(Nc3cnc(C(=O)O)cn3)cc12` [Synthesis Example 20, 5-((6-(Cyclopropylcarbamoyl)-7-hydroxy-4-neopentyl-5-oxo-4,5-dihydropyrazolo[1,5-a]pyrimidin-2-yl)amino)pyrazine-2-carboxylic acid], for which the IC50 is less than 1000 nM. In the case of `CC(C)(C)Cn1c(=O)c(C(=O)NC2CCC2)c(O)n2nc(Br)cc12` [Synthesis Example 25, 2-Bromo-N-cyclobutyl-7-hydroxy-4-neopentyl-5-oxo-4,5-dihydropyrazolo[1,5-a]pyrimidine-6-carboxamide], the IC50 was less than 1000 nM. With `CC(C)(C)Cn1c(=O)c(C(=O)NC2CC2)c(O)n2nc(NC(=O)OC(C)(C)C)cc12` [Synthesis Example 3, Tert-butyl (6-(cyclopropylcarbamoyl)-7-hydroxy-4-neopentyl-5-oxo-4,5-dihydropyrazolo[1,5-a]pyrimidin-2-yl)carbamate], the half-inhibitory concentration (IC50) is less than 1000 nM.

Molecule `CC(C)(C)Cn1c(=O)c(C(=O)NC2CC2)c(O)n2nc(Br)cc12` [Synthesis Example 11, 2-Bromo-N-cyclopropyl-7-hydroxy-4-neopentyl-5-oxo-4,5-dihydropyrazolo[1,5-a]pyrimidine-6-carboxamide] had an IC50 of less than 1000 nM. As to `O=C(NC1CC1)c1c(O)n2nc(C3CC3)cc2n(CC2CCOCC2)c1=O` [Synthesis Example 135, N,2-Dicyclopropyl-7-hydroxy-5-oxo-4-((tetrahydro-2H-pyran-4-yl)methyl)-4,5-dihydropyrazolo[1,5-a]pyrimidine-6-carboxamide], the IC50 was less than 1000 nM.
